Assay results published in article PMC11842024, “Reversible male contraception by targeted inhibition of serine/threonine kinase 33” (Science (New York, N.Y.), 2024).

Assays:
[1] = CDD-2807 concentrations in mouse brain, liver, lung, and testis; type: in vivo, mice
Description: Pharmacokinetics (PK) of CDD-2807 in mice. The pharmacokinetic studies (72) of CDD-2807 were performed at three doses via intraperitoneal (i.p.) injection and oral (p.o.) administration.
CDD-2807 was dissolved in 10% Captisol containing 5% DMSO to prepare the solutions of 0.5 mg/mL, 2.5 mg/mL and 5.0 mg/mL. Twelve male mice (strain: C57BL/6NJ, 8−12 weeks) were divided equally and randomly into 4 groups (n = 3 for each dose). One group of mice were administered 5 mg/kg CDD-2807 (i.p., 10 µL/g of 0.5 mg/mL solution), the second group 25 mg/kg CDD-2807 (i.p., 10 µL/g of 2.5 mg/mL solution), the third group 5 mg/kg CDD-2807 (p.o., 10 µL/g of 0.5 mg/mL solution), and the fourth group 50 mg/kg CDD-2807 (p.o., 10 µL/g of 5.0 mg/mL solution). At 0, 5, 10, 15, 30 min, 1, 2, 4, 6, 8, 24 h post-dose, around 20 µL of blood was collected from the tail vein and anti-coagulated by heparin. The blood samples were centrifuged at 2000 g for 3 min at 4°C, and the plasma samples were transferred to tubes and stored at −80°C before analysis. All the samples were analyzed by the Thermo TSQ Quantis MS coupled with a Thermo Vanquish UHPLC (San Jose, CA). CDD-2807 was separated on a Luna C18 column (1 mm × 50 mm, 1.6 µm, Phenomenex, Torrance, CA), and eluted by a water-acetonitrile mobile phase system (both containing 0.1% formic acid, v/v) at the flow rate of 0.15 mL/min. CDD-2807 was monitored under the SRM mode coupled with a positive ESI source. The SRM ion pairs were 447→321 for CDD-2807. The ion spray voltage was set at 3500 V. High-purity nitrogen was used as the sheath gas (35 arbitrary unit), auxiliary gas (7 arbitrary unit), and high-purity argon was used as the collision gas. The temperatures of the ion transfer tube and the vaporizer were set at 300°C and 275°C, respectively. The concentration of CDD-2807 in plasma was quantified using individual calibration curves. The calibration curve was regressed with a weight of 1/x2 with high linearity (r2 >0.99). PK parameters, including half-time (t1/2), area under the plasma concentration– time curve from zero to infinity (AUC0–∞), clearance normalized by the bioavailability (CL/F), volume of distribution normalized by the bioavailability (Vd/F), and the mean residence time (MRT), were calculated by WinNonlin software (Certara, Princeton, NJ) by noncompartmental […]
analysis. […]
CDD-2807 concentrations in mouse brain, liver, lung, and testis. Tissue samples harvested from mice on day 45 of protocol 1 and at 24-hour, day 7, and day 63 of protocol 2 were weighed and snap-frozen in liquid nitrogen. The samples were stored at −80°C before analysis. Twenty-five mg of tissue was homogenized in 150 µL of 50% CH3OH, and 50 µL of homogenate was added to 200 µL of ice-cold CH3OH containing 0.1 µM of agomelatine (internal standard). The mixture was vortexed and centrifuged at 15000 g for 15 min, and supernatants were transferred into sample vials for analysis. CDD-2807 was analyzed by the same method used in the pharmacokinetic study. The concentration of CDD-2807 in the testis and brain was determined by […]
using individual calibration curves established with the corresponding tissue homogenates from untreated mice. The calibration curve was regressed with a weight of 1/x2 with high linearity (r2 […]
Spatial distribution of CDD-2807 in testis. The testis from the mice treated with CDD-2807 were attached to the Leica CM3050 S cryostat (Leica Biosystems, Deer Park, IL) with water and then sectioned at the thickness of 10 μm at −20°C. The sections were attached to electrically conductive glass slides coated with indium tin oxide ([…], 70-100 ohms, Delta Technologies, Loveland, CO). Tissue sections were sprayed with a matrix solution containing 35 mg/mL 2,5-dihydroxybenzoic acid (DHB, Sigma, St. Louis, MO) in 70% aqueous CH3OH with 0.1% trifluoroacetic acid using an HTX TM-Sprayer (HTX Technologies LLC, Carrboro, NC). Sprayer nozzle temperature was set at 70°C, tray temperature at 40°C, nozzle velocity at 1200 mm/min, […]

[2] = Alanine transaminase (ALT) and aspartate transaminase (AST) assays in serum; type: in vivo, mice
Description: Alanine transaminase (ALT) and aspartate transaminase (AST) assays. On day 45 of protocol 1 and day 7 and day 63 of protocol 2, three mice from each protocol were euthanized, and blood was collected through cardiac puncture. The serum was isolated by centrifuging the whole blood samples at 1500 g for 10 min and then maintained on wet ice before analysis. ALT and AST levels were measured in duplicates using assay kits (StanBio, Boerne, TX) according to the manufacturer's instructions. ALT and AST levels were determined using the rate of NADH oxidation, which was quantified by measuring absorbance at 340 nm using a CLARIOstar plate reader (BMG Labtech in Cary, NC). ALT and AST were tested for significance at multiple collection time points, tests for significance included a test for normality (Shapiro-Wilk test) and following the test for normality were then analyzed using an unpaired t-test with significance determined by an alpha of P = 0.05. […]
any significant differences between groups.
Fertility analysis. Sexually mature male C57/129 hybrid mice were randomly assigned to either the vehicle control treatment or the CDD-2807 treatment groups. Drug formulation and injections were as follows: for protocol 1 mice receiving the 15 mg/kg CDD-2807 twice daily dosing had the compound dissolved in DMSO, which was injected at 5% of the final volume in 10% Captisol and water. For protocol 2 mice receiving a single daily dose of 50 mg/kg CDD-2807, the compound was dissolved in DMSO and injected at 5% in 20% Captisol and water. All injections were administered as i.p. injections, and for the 15 mg/kg CDD-2807 and DMSO control mice, the injections were delivered in the morning and the evening. Mice in the 50 mg/kg dosing received i.p. injections once in the evening. Weights were measured daily prior to drug administration and monitored throughout the entirety of the injection period. […]

male mice = test: Testis size of treated mice; type: in vivo

**Q.** Which concentration at 7 day ([1]; C57/129 hybrid, mouse, testis, intraperitoneal, 50 mg/kg/day over 7 days) does the source give for O=C(c1ccc2[nH]nc(C#Cc3ccccc3-c3ccccc3)c2c1)N1CC2(CCCNC2)C1 [CDD-2807] here?
**A.** ~24000 ng/g

**Q.** What about the concentration at 45 day ([1]; male, C57/129 hybrid, mouse, testis, ip, protocol 1 (15 mg/kg i.p. twice per day), day 45) of the same compound?
**A.** 89600 ± 14100 ng/g

**Q.** And the concentration at 63 day ([1]; male, C57/129 hybrid, mouse, testis, ip, protocol 2 (50 mg/kg i.p. once per day), day 63)?
**A.** 114000 ± 7900 ng/g

**Q.** And the CDD-2807 in brain ([1]; protocol 1, day 45, collection 12 hours after dosing)?
**A.** 0.28 ± 0.09 ng of CDD-2807 per milligram of tissue

**Q.** And the CDD-2807 in lung ([1]; protocol 1 and 2 mice)?
**A.** low levels

**Q.** And the CDD-2807 in brain ([1]; protocol 2, day 63, collection 24 hours after dosing)?
**A.** undetectable

**Q.** What about the ALT ([2]; Protocol 1, 45 Days) of the same compound?
**A.** 20.33 ± 5.30 IU/L

**Q.** What about the AST ([2]; Protocol 1, 45 Days) of the same compound?
**A.** 35.80 ± 3.09 IU/L

**Q.** And the ALT ([2]; Protocol 2, 7 Days)?
**A.** 23.65 ± 2.50 IU/L

**Q.** What about the AST ([2]; Protocol 2, 7 Days) of the same compound?
**A.** 21.66 ± 3.30 IU/L

**Q.** And the ALT ([2]; Protocol 2, 63 Days)?
**A.** 45.97 ± 11.04 IU/L

**Q.** And the AST ([2]; Protocol 2, 63 Days)?
**A.** 29.76 ± 6.79 IU/L

**Q.** What about the testis size (male mice; 50 mg/kg/day for 7 days (Protocol 3)) of the same compound?
**A.** did not alter

**Q.** What about the testis size (male mice; protocol 1 at day 45) of the same compound?
**A.** normal

**Q.** What about the testis size (male mice; protocol 2 at 63 days) of the same compound?
**A.** 87.13 ± 5.87 mg
